Assay results reported in PubChem BioAssay (NCI).
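Where inhibition never reached the appropriate level, the endpoint shown equals the highest concentration tested. Otherwise, values were interpolated linearly from a five-concentration, 48-hour dose response in 96-well plates. TGI: concentration producing complete growth inhibition.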

How the values were obtained:
Experiment in all cases: growth of human tumour cells (NCI), 48 h
SK-OV-3 ovarian = system: SK-OV-3 ovarian
OVCAR-5 ovarian = system: OVCAR-5 ovarian
ACHN renal = system: ACHN renal
SK-MEL-28 melanoma = system: SK-MEL-28 melanoma
OVCAR-8 ovarian = system: OVCAR-8 ovarian
SF-268 CNS = system: SF-268 CNS
NCI-H460 lung = system: NCI-H460 lung
TK-10 renal = system: TK-10 renal
SW-620 colon = system: SW-620 colon
SF-539 CNS = system: SF-539 CNS

Structure (SMILES) | TGI (SK-OV-3 ovarian) | TGI (OVCAR-5 ovarian) | TGI (ACHN renal) | TGI (SK-MEL-28 melanoma) | TGI (OVCAR-8 ovarian) | TGI (SF-268 CNS) | TGI (NCI-H460 lung) | TGI (TK-10 renal) | TGI (SW-620 colon) | TGI (SF-539 CNS)
CNCC(SC)c1ccc(O)c(O)c1 (stereo not drawn) | > 100 µM | > 100 µM | 33.4 µM | > 100 µM | 41.4 µM | > 100 µM | 33.2 µM | 34 µM | 46.9 µM | –
CC12CC(c3ccccc3O1)C(C(=O)Nc1nccs1)C(=O)N2 (stereo not drawn) | > 100 µM | > 100 µM | > 100 µM | > 100 µM | > 100 µM | > 100 µM | > 100 µM | > 100 µM | > 100 µM | –
CN1COCN=C1NC#N | > 100 µM | > 100 µM | > 100 µM | > 100 µM | – | > 100 µM | > 100 µM | – | > 100 µM | > 100 µM
C[C@H](CCc1nc(C#N)c(N)o1)[C@H]1CC[C@H]2[C@@H]3CCC4C[C@@H](O)CC[C@]4(C)[C@H]3C[C@@H](O)[C@]12C (stereo partly drawn) | 28.5 µM | 35.1 µM | 28.6 µM | 26.6 µM | 20.3 µM | 27.8 µM | 31.3 µM | 28.6 µM | 27.4 µM | 27.6 µM
c1ccc(C2N=C(c3ccccn3)C(c3ccccn3)=NC2c2ccccc2)cc1 (stereo not drawn) | > 100 µM | > 100 µM | > 100 µM | > 100 µM | > 100 µM | > 100 µM | > 100 µM | > 100 µM | > 100 µM | > 100 µM
CC(=O)c1c(-c2ccco2)c(C#N)c(=S)n(C2OC(CO)C(O)C(O)C2O)c1C (stereo not drawn) | > 100 µM | > 100 µM | > 100 µM | > 100 µM | > 100 µM | > 100 µM | > 100 µM | > 100 µM | > 100 µM | > 100 µM
C#CC(O)/C=C/C(O)CCCC(O)CC#CC(O)C#CCCCCC(O)/C=C/CCCC(=O)CCCCCCCCCCCCCCCC(O)C(O)C#CC(=O)O (stereo not drawn) | > 25 µM | > 25 µM | > 25 µM | > 25 µM | > 25 µM | > 25 µM | > 25 µM | > 25 µM | – | –
COc1ccc(N=C(C)C(C)=Nc2ccc(OC)cc2)cc1 | > 100 µM | > 100 µM | > 100 µM | > 100 µM | > 100 µM | > 100 µM | > 100 µM | > 100 µM | > 100 µM | > 100 µM
CC(Cl)(CCC(Cl)C(C)(C)Cl)C(=O)CBr (stereo not drawn) | 26.9 µM | 31.6 µM | 20.9 µM | 31.6 µM | 23.7 µM | 31.7 µM | 32.3 µM | 24.1 µM | 4.96 µM | 29.8 µM
COC(=O)c1c(CC(=O)OC(C)C)cc2n(c1=O)Cc1c-2nc2ccccc2c1OC | > 100 µM | > 100 µM | > 100 µM | > 100 µM | > 100 µM | > 100 µM | > 100 µM | > 100 µM | > 100 µM | –
O=C1OC2(CCCCC2)C(Oc2ccc(Cl)cc2)=C1F | > 100 µM | > 100 µM | > 100 µM | 81.5 µM | > 100 µM | > 100 µM | > 100 µM | > 100 µM | > 100 µM | > 100 µM
COC(=O)[C@@H]1C=CCN1S(=O)(=O)c1ccc(C)cc1 | > 100 µM | > 100 µM | > 100 µM | > 100 µM | > 100 µM | > 100 µM | > 100 µM | > 100 µM | > 100 µM | > 100 µM
COc1ccc(C2C3=C(COC3=O)Oc3cc4c(cc32)OCO4)cc1OC (stereo not drawn) | 18.1 µM | > 100 µM | > 100 µM | > 100 µM | > 43.3 µM | > 100 µM | > 100 µM | > 100 µM | > 100 µM | 2.31 µM
COC(=O)CCCc1nc2ccccc2nc1N=Nc1ccccc1 | > 100 µM | > 100 µM | > 100 µM | > 100 µM | 58.5 µM | > 100 µM | > 100 µM | > 100 µM | > 100 µM | > 100 µM
CN1CCC(O)(OC(=O)C(c2ccccc2)C2(O)CCCC2)CC1 (stereo not drawn) | > 100 µM | > 100 µM | > 100 µM | > 100 µM | > 100 µM | > 100 µM | > 100 µM | > 100 µM | > 100 µM | > 100 µM
Cc1ccc(N=Nc2c(O)ccc3ccccc23)c(C)c1 | > 100 µM | > 100 µM | – | > 100 µM | > 100 µM | > 100 µM | – | > 100 µM | > 100 µM | –
Cc1cc(NS(=O)(=O)c2ccc(Nc3c4ccccc4nc4c(C(=O)NC(CO)(CO)CO)cccc34)cc2)no1 | > 100 µM | > 100 µM | > 100 µM | > 100 µM | > 100 µM | 60.6 µM | – | 61.7 µM | > 100 µM | –
Cc1noc(-c2ccc(C(=O)O)[nH]2)c1Br | > 100 µM | > 100 µM | > 100 µM | > 100 µM | 32.2 µM | > 100 µM | > 100 µM | > 100 µM | > 100 µM | –
O=C(NNC(=O)c1ccc(Cl)cc1NC(=O)C12CC3CC(CC(C3)C1)C2)c1ccc(Cl)cc1 | 60.3 µM | 74.4 µM | 51.6 µM | – | > 100 µM | > 100 µM | 66.3 µM | 57.2 µM | > 100 µM | 46.6 µM
Cc1oc(N)c(S(=O)(=O)/C(C#N)=C/c2ccccc2[N+](=O)[O-])c1C | > 100 µM | 39.2 µM | > 100 µM | 64.2 µM | – | > 100 µM | > 100 µM | > 100 µM | 63.1 µM | 61.4 µM
Cc1cc2ccccc2n2c1nc1ccc(O)cc12 | > 10 µM | > 10 µM | > 10 µM | > 10 µM | > 10 µM | > 10 µM | > 10 µM | > 10 µM | > 10 µM | > 10 µM
NCCCNCCSP(=O)(O)O | > 750 µM | > 750 µM | – | > 750 µM | > 511 µM | > 750 µM | > 750 µM | – | > 750 µM | > 750 µM
